Assay results as given in PubChem BioAssay (NCI).
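Growth conditions: 96-well plates. Treatment: test compound, 48 hours, 5 concentrations. Analysis: linear interpolation between bracketing concentrations; unreached endpoints set to highest concentration. TGI marks complete inhibition of growth.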

Assays:
Assay in all cases: NCI-60 cell line screen, 48 h
SF-295 CNS = test system: SF-295 CNS
HCT-116 colon = test system: HCT-116 colon
NCI-H460 lung = test system: NCI-H460 lung
DU-145 prostate = test system: DU-145 prostate
SF-539 CNS = test system: SF-539 CNS
MDA-MB-435 = test system: MDA-MB-435
SK-MEL-2 melanoma = test system: SK-MEL-2 melanoma
MOLT-4 leukemia = test system: MOLT-4 leukemia
BT-549 breast = test system: BT-549 breast
786-0 renal = test system: 786-0 renal
MALME-3M melanoma = test system: MALME-3M melanoma
UACC-62 melanoma = test system: UACC-62 melanoma
HL-60(TB) leukemia = test system: HL-60(TB) leukemia
NCI-H23 lung = test system: NCI-H23 lung
IGROV1 ovarian = test system: IGROV1 ovarian
MDA-MB-231 breast = test system: MDA-MB-231 breast
U251 CNS = test system: U251 CNS
HOP-62 NSCLC = test system: HOP-62 NSCLC
SNB-75 CNS = test system: SNB-75 CNS
OVCAR-3 ovarian = test system: OVCAR-3 ovarian
HCT-15 colon = test system: HCT-15 colon
OVCAR-8 ovarian = test system: OVCAR-8 ovarian
SK-OV-3 ovarian = test system: SK-OV-3 ovarian
SW-620 colon = test system: SW-620 colon
KM12 colon = test system: KM12 colon
LOX IMVI melanoma = test system: LOX IMVI melanoma
RXF 393 renal = test system: RXF 393 renal
CCRF-CEM leukemia = test system: CCRF-CEM leukemia
SNB-19 CNS = test system: SNB-19 CNS
UACC-257 melanoma = test system: UACC-257 melanoma
CAKI-1 renal = test system: CAKI-1 renal
SK-MEL-28 melanoma = test system: SK-MEL-28 melanoma
ACHN renal = test system: ACHN renal
SF-268 CNS = test system: SF-268 CNS
A498 renal = test system: A498 renal
NCI-H226 lung = test system: NCI-H226 lung
PC-3 prostate = test system: PC-3 prostate
UO-31 renal = test system: UO-31 renal
HT29 colon = test system: HT29 colon
T-47D breast = test system: T-47D breast
RPMI-8226 leukemia = test system: RPMI-8226 leukemia
NCI/ADR-RES ovarian = test system: NCI/ADR-RES ovarian
OVCAR-4 ovarian = test system: OVCAR-4 ovarian
OVCAR-5 ovarian = test system: OVCAR-5 ovarian
A549 NSCLC = test system: A549 NSCLC
COLO 205 colon = test system: COLO 205 colon
HOP-92 NSCLC = test system: HOP-92 NSCLC
HS 578T breast = test system: HS 578T breast
TK-10 renal = test system: TK-10 renal
MCF7 breast = test system: MCF7 breast
SK-MEL-5 melanoma = test system: SK-MEL-5 melanoma
M14 melanoma = test system: M14 melanoma
NCI-H522 lung = test system: NCI-H522 lung
SR leukemia = test system: SR leukemia
K-562 leukemia = test system: K-562 leukemia

Question: For Cc1ccc(N=C/C=C(\Nc2ccc(C)cc2)c2ccc3ccccc3c2)cc1, which TGI (SF-295 CNS) is on record?
Answer: Its TGI is 3.9 µM.

Question: And the TGI (HCT-116 colon)?
Answer: The TGI was 2.99 µM.

Question: What about the TGI (NCI-H460 lung) of the same compound?
Answer: Its TGI is 13.8 µM.

Question: What about the TGI (DU-145 prostate) of the same compound?
Answer: The TGI was 10.7 µM.

Question: What about the TGI (SF-539 CNS) of the same compound?
Answer: The TGI was 3.45 µM.

Question: What about the TGI (MDA-MB-435) of the same compound?
Answer: Its TGI is 0.493 µM.

Question: And the TGI (SK-MEL-2 melanoma)?
Answer: Its TGI is 11.2 µM.

Question: What about the TGI (MOLT-4 leukemia) of the same compound?
Answer: Its TGI is 0.533 µM.

Question: And the TGI (BT-549 breast)?
Answer: Its TGI is 13.6 µM.

Question: What about the TGI (786-0 renal) of the same compound?
Answer: The TGI was 3.38 µM.

Question: And the TGI (MALME-3M melanoma)?
Answer: Its TGI is 14 µM.

Question: And the TGI (UACC-62 melanoma)?
Answer: The TGI was 1.3 µM.

Question: What about the TGI (HL-60(TB) leukemia) of the same compound?
Answer: The TGI was 2.02 µM.

Question: And the TGI (NCI-H23 lung)?
Answer: Its TGI is 3.9 µM.

Question: And the TGI (IGROV1 ovarian)?
Answer: The TGI was 15.1 µM.

Question: What about the TGI (MDA-MB-231 breast) of the same compound?
Answer: Its TGI is 2.12 µM.

Question: And the TGI (U251 CNS)?
Answer: The TGI was 7.23 µM.

Question: And the TGI (HOP-62 NSCLC)?
Answer: The TGI was 5.4 µM.

Question: What about the TGI (SNB-75 CNS) of the same compound?
Answer: The TGI was 6.16 µM.

Question: What about the TGI (OVCAR-3 ovarian) of the same compound?
Answer: The TGI was 11.2 µM.

Question: What about the TGI (HCT-15 colon) of the same compound?
Answer: The TGI was 4.24 µM.

Question: What about the TGI (OVCAR-8 ovarian) of the same compound?
Answer: Its TGI is greater than 100 µM.

Question: What about the TGI (SK-OV-3 ovarian) of the same compound?
Answer: Its TGI is 9.71 µM.

Question: And the TGI (SW-620 colon)?
Answer: The TGI was 24.9 µM.

Question: And the TGI (KM12 colon)?
Answer: The TGI was 4.43 µM.

Question: And the TGI (LOX IMVI melanoma)?
Answer: Its TGI is 1.91 µM.

Question: And the TGI (RXF 393 renal)?
Answer: The TGI was 8.52 µM.

Question: What about the TGI (CCRF-CEM leukemia) of the same compound?
Answer: Its TGI is 0.558 µM.

Question: And the TGI (SNB-19 CNS)?
Answer: Its TGI is 15.4 µM.

Question: What about the TGI (UACC-257 melanoma) of the same compound?
Answer: Its TGI is 16.6 µM.

Question: What about the TGI (CAKI-1 renal) of the same compound?
Answer: The TGI was 12.7 µM.

Question: And the TGI (SK-MEL-28 melanoma)?
Answer: The TGI was 11.2 µM.

Question: What about the TGI (ACHN renal) of the same compound?
Answer: The TGI was 7.77 µM.

Question: And the TGI (SF-268 CNS)?
Answer: The TGI was 28.8 µM.

Question: What about the TGI (A498 renal) of the same compound?
Answer: The TGI was 24.2 µM.

Question: What about the TGI (NCI-H226 lung) of the same compound?
Answer: The TGI was 4.48 µM.

Question: What about the TGI (PC-3 prostate) of the same compound?
Answer: The TGI was 18 µM.

Question: What about the TGI (UO-31 renal) of the same compound?
Answer: The TGI was 13.1 µM.

Question: What about the TGI (HT29 colon) of the same compound?
Answer: The TGI was 2.32 µM.

Question: What about the TGI (T-47D breast) of the same compound?
Answer: The TGI was 23.7 µM.

Question: What about the TGI (RPMI-8226 leukemia) of the same compound?
Answer: Its TGI is 2.56 µM.

Question: What about the TGI (NCI/ADR-RES ovarian) of the same compound?
Answer: Its TGI is 2.16 µM.

Question: What about the TGI (OVCAR-4 ovarian) of the same compound?
Answer: The TGI was 11.2 µM.

Question: And the TGI (OVCAR-5 ovarian)?
Answer: Its TGI is 6.24 µM.

Question: What about the TGI (A549 NSCLC) of the same compound?
Answer: The TGI was 13.2 µM.

Question: What about the TGI (COLO 205 colon) of the same compound?
Answer: Its TGI is 2.38 µM.

Question: And the TGI (HOP-92 NSCLC)?
Answer: Its TGI is 27.6 µM.

Question: What about the TGI (HS 578T breast) of the same compound?
Answer: Its TGI is 36.8 µM.

Question: And the TGI (TK-10 renal)?
Answer: The TGI was 6.82 µM.

Question: What about the TGI (MCF7 breast) of the same compound?
Answer: The TGI was 16.5 µM.

Question: What about the TGI (SK-MEL-5 melanoma) of the same compound?
Answer: The TGI was 12 µM.

Question: And the TGI (M14 melanoma)?
Answer: The TGI was 8.69 µM.

Question: And the TGI (NCI-H522 lung)?
Answer: Its TGI is 11 µM.

Question: What about the TGI (SR leukemia) of the same compound?
Answer: The TGI was 1.44 µM.

Question: What about the TGI (K-562 leukemia) of the same compound?
Answer: Its TGI is 2.72 µM.
